Columns and labels:
[1] = system: 293T stably expressing STING-HA; test: Immunofluorescence of HGS, p62, CD63, LC3B and STING in 293T STING-HA after cGAMP; assay type: cell-based, human; details: 293T STING-HA; cGAMP 2 hours; MLN7243; FIGS. 5E-5F
Description: 293T STING-TurboID were seeded directly on coverslips. 293T STING-HA were seeded on Fibronectin bovine plasma (Sigma-stock: 100×) coated coverslips. Cells were seeded the day before stimulation at 0.1 million cells/well density in 24 well plates. Cells were stimulated with cGAMP permeabilization buffer containing 1 μg/mL cGAMP for 10 minutes, washed with warm medium, and incubated for the indicated times. hTert-BJ1 mScarlet or mScarlet-UBAP1DN were seeded Fibronectin bovine plasma coated coverslips at 0.05 million cells/well density in a 24 well plate and fixed 6 hours post seeding. Cells were then fixed with 2% Paraformaldehyde (Electron Microscopy Sciences) in PHEM buffer (Electron Microscopy Sciences) for 30 minutes at 37° C., washed three times with PBS and quenched with freshly prepared 0.1M Glycine for 10 minutes. Coverslips were then permeabilized and blocked with 10% goat serum (Thermo Fisher) in PBS, 0.5% BSA (Seracare), 0.05% Saponin from Quillaja bark (Sigma) for 30 minutes. Coverslips were then stained with primary antibodies for 1-2 hours at room temperature in PBS, 0.5% BSA (Seracare), 0.05% Saponin from Quillaja bark (Sigma) with 10% goat serum, washed 5 times, and then stained with secondary antibodies in PBS, 0.5% BSA (Seracare), 0.05% Saponin from Quillaja bark (Sigma) for 1-2 hours. […] Images were analyzed in FiJi. […]

[2] = system: STING association with ESCRT (HGS, VPS37A) and TBK1; test: STING-TurboID proximity biotin labeling and streptavidin pull-down in 293T; assay type: cell-based, human; details: 293T STING-TurboID; 3 hours; 0.5 μM MLN7243; FIG. 5C
Description: Generation of cells and stimulation. 293T cells were transduced with pTRIP-hPGK-Blast-2A-STING-TurboID and selected with 15 μg/mL Blasticidin (Invivogen) for one week. To test the construct via pull-down, 0.8 million cells were seeded in a 6 well plate. The following day, cells were permeabilized with 300 μl/well of cGAMP permeabilization buffer [50 mM HEPES (Corning), 100 mM KCl (Thermo Fisher), 3 mM MgCl2 (Thermo Fisher), 0.1 mM DTT (Thermo fisher), 85 mM Sucrose (Thermo Fisher), 0.5 mM ATP (Cayman chemicals), 0.1 mM GTP (Cayman Chemicals), 0.2% BSA (Seracare), 0.001% Digitonin (Promega)| containing 1 μg/mL 2′3′-cGAMP (Invivogen) or water for 10 minutes at 37° C., washed with 3 mL of warm medium and then medium was replaced. For mass-spec, 6 million cells were seeded in a 10 cm dish for each condition. Cells were stimulated with 2.8 mL of cGAMP permeabilization buffer containing 6 μg total of cGAMP per dish. Cells were left stimulating for the desired times and 500 μM biotin (Cayman chemicals) was added in each well 30 minutes prior to harvest. Cells were harvested by trypsinization, washed 3 times in cold PBS and pellets were frozen until processing. For experiments in 6 well plates, 3 wells per condition were harvested. For experiments in 10 cm dishes, one dish per condition was harvested.
Pull-down. […]

Structure (SMILES): NS(=O)(=O)OC[C@H]1C[C@@H](Nc2ccnc3cc(-c4cccc(SC(F)(F)F)c4)nn23)[C@H](O)[C@@H]1O [MLN7243]
- HGS co-localization with p62 [1]: failed to co-localize with p62
- HGS foci co-localizing with STING [1]: completely lost
- biotin labeling of HGS and VPS37A by STING-TurboID [2]: reduced the biotin labeling of HGS and VPS37A
- biotin labeling of TBK1 by STING-TurboID [2]: unaffected
